Results published in patent US20250197490A1, “ANTI-CORTICOTROPIN-RELEASING HORMONE ANTIBODIES AND USE IN CONGENITAL ADRENAL HYPERPLASIA” (HBM ALPHA THERAPEUTICS, INC., priority 2021, published 2025).

Tested on: human CRHR1
Experiment: CRH-induced luciferase reporter blocking in CHO-CRE-hCRHR1 cells
Type: cell-based
Settings: in words
Procedure: To generate a CHO-CRE-Luciferase Reporter stable cell line, a mixture of 2 million CHO-K1 cells with 10 μg of pGL4.29/luc2P/CRE/Hygro plasmid in 100 μl of Ingenio solution was transferred into electroporation cuvettes and subjected to 1 or 2 pulses using an Electro Cell Manipulator (950 uF and 120V). The processed cells were transferred into a 6-well plate with 2 mL of Dulbecco's Modified Eagle's Medium (DMEM)/F12 with 10% fetal bovine serum (FBS). After 24 hours, selection antibiotic hygromycin at 500 μg/ml was added to the cells. […] Using matrix dilution, the pool of CHO-CRE cells was subcloned into 96-well plates. Individual stable clones were harvested when selected colonies became obvious. Positive clones were validated using a series of diluted forskolin. Validated positive clones were frozen for the future use.
To create CHO-CRE-hCRHR1,-hCRHR2,-mCRHR1, and -mCRHR2 reporter cell lines, pcDNA3.1-hCRHR1,-hCRHR2,-mCRHR1, and -mCRHR2 were introduced into CHO-CRE cells established above by electroporation as described above. Selection antibiotics hygromycin at 500 μg/ml and G418 at 1,000 μg/ml were employed. […]
50 μl of 4× serially diluted antibodies was added (8 points, ¼ diluted by growth medium) to plates containing CHO-CRE-hCRHR1 cells, and 50 μl of 4×CRH (4× is 2 nM, final is 0.5 nM) was added. […] Plates were read in a luciferase plate reader (En Vision, PerkinElmer).

CCCCN(CC)c1nc(C)nc2c1c(C)c(C)n2-c1c(C)cc(C)cc1C [Antalarmin, N-butyl-N-ethyl-(2,5,6-trimethyl-7-(2,4,6-trimethylphenyl)-7H-pyrrolo (2,3-d)pyrimidin-4-yl)amine, reference compound]
blocking activity in human CRHR1 luciferase reporter assay (CRH-mediated luciferase expression): blocked
